Measurements published in the supplement of paper PMC10883282.
± gives the standard deviation of the averaged measurements.

Tested on: SK-LMS-1
Test: relative viability vs DMSO control (72 h) (fraction); higher = more viable cells
Method in brief: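 Sarcoma cell lines were grown in 384-well plates seeded toward 80–90% confluence and exposed 24 h later to serially diluted compound. After 72 h at 37 °C and 5% CO2, with 0.1% DMSO vehicle and a 5 µM positive control on the plates, ATPLite was read. Relative viability, given as percent growth averaged over up to triplicate wells, was rescaled so that 1 is full and 0 is none.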

Row | Structure (SMILES) | relative viability (0.00017 µM) | relative viability (0.00051 µM) | relative viability (0.00152 µM) | relative viability (0.00457 µM) | relative viability (0.01372 µM) | relative viability (0.04115 µM) | relative viability (0.1235 µM) | relative viability (0.3704 µM) | relative viability (1.111 µM) | relative viability (3.333 µM) | relative viability (10 µM)
1 | CO[C@H]1C[C@@H]2CC[C@@H](C)[C@@](O)(O2)C(=O)C(=O)N2CCCC[C@H]2C(=O)O[C@H]([C@H](C)C[C@@H]2CC[C@@H](OP(C)(C)=O)[C@H](OC)C2)CC(=O)[C@H](C)/C=C(\C)[C@@H](O)[C@@H](OC)C(=O)[C@H](C)C[C@H](C)/C=C/C=C/C=C/1C [Ridaforolimus] | 1.01 ± 0.067 | 0.903 ± 0.025 | 0.753 ± 0.016 | 0.67 ± 0.018 | 0.632 ± 0.029 | 0.594 ± 0.031 | 0.559 ± 0.022 | 0.563 ± 0.031 | 0.554 ± 0.021 | 0.5602 ± 0.0032 | 0.5145 ± 0.0018
2 | Cc1cnc(Nc2ccc(OCCN3CCCC3)cc2)nc1Nc1cccc(S(=O)(=O)NC(C)(C)C)c1 [Fedratinib] | 1.01 ± 0.035 | 1 ± 0.068 | 1.04 ± 0.041 | 1.08 ± 0.062 | 1.04 ± 0.012 | 1.01 ± 0.042 | 0.99 ± 0.018 | 0.904 ± 0.034 | 0.7315 ± 0.0026 | 0.407 ± 0.011 | 0.0111 ± 0.0012
3 | Cn1cc(-c2cc3c(N4CCN(c5ncc([C@@](C)(N)c6ccc(F)cc6)cn5)CC4)ncnn3c2)cn1 [Avapritinib] | 0.9488 ± 0.004 | 0.959 ± 0.072 | 0.999 ± 0.047 | 0.989 ± 0.049 | 0.973 ± 0.061 | 0.978 ± 0.023 | 0.9338 ± 0.0068 | 0.911 ± 0.012 | 0.877 ± 0.03 | 0.7843 ± 0.0066 | 0.829 ± 0.026
4 | CN1CCN(c2ccc3nc(-c4c(N)c5c(F)cccc5[nH]c4=O)[nH]c3c2)CC1 [Dovitinib] | 1.08 ± 0.053 | 1.09 ± 0.049 | 1.1 ± 0.037 | 1.14 ± 0.043 | 1.09 ± 0.063 | 1.12 ± 0.022 | 1.11 ± 0.015 | 1.07 ± 0.035 | 0.907 ± 0.017 | 0.654 ± 0.021 | 0.407 ± 0.0099
